According to PMC8894198, “Biosynthetic Microcin J25 Exerts Strong Antibacterial, Anti-Inflammatory Activities, Low Cytotoxicity Without Increasing Drug-Resistance to Bacteria Target” (Frontiers in Immunology, 2022):
Values after ≈ are worked out from the molar mass of the structure shown. Where a SMILES comes first, the peptide text is derived from it. Bridges are numbered along the chain shown (N, C = ends).

Legend:
[1] = LPS neutralization, chromogenic limulus amebocyte lysate assay; format: biochemical, E. coli; conditions: 8 μg/mL MccJ25, LPS 1 EU/mL, 37°C, A405
Protocol: The neutralizing impacts of MccJ25 on LPS were assessed according to a color-emitting […] assay. Levels of E. coli LPS (1 EU/mL) were prepared and combined with various concentrations of MccJ25 (1 to 128 µg/mL) and inoculated in the wells of sterile microtiter plates at 37°C. Then, 50 μL of the above mixture was extracted, the same volume of […] reagent was added, and the mixture was incubated for 10 min at 37°C. […] The reaction was finished by adding 25% acetic acid, and finally, its absorbance value at 405 nm was measured.

E. coli SWI 531 = assay: MIC/MBC, clinical isolate resistant to colistin sulfate, lincomycin and tilmicosin; format: cell-based; conditions: source pig tissue
Protocol: (§1) The minimum inhibitory concentration (MIC) refers to the lowest concentration that can produce a significant hindrance to bacterial growth in a drug sensitivity test by adopting a broth dilution, with certain refinements and modifications based on the previous description ([25], [26]). In short, MccJ25 was dissolved in sterilized distilled water (SDW), serial 2-fold dilutions were prepared in Mueller-Hinton broth (MHB) through a 96-well microtiter plate, and the final concentration of MccJ25 was maintained in the range of 0.003125 to 256 μg/mL. Then, 2 μL of standard and clinically relevant overnight broth cultures of bacteria were inoculated into each well at a concentration of 5 × 10^6 CFU/mL. Microtiter plates were incubated at 37°C for one full day. Two groups were set up: positive (medium with inoculum) and negative (medium only) controls. The minimum bactericidal concentration (MBC) was measured in LB medium and refers to the first drug dilution value at which the initial bacterial concentration was reduced by 99.99%. The final analysis was determined by the results of three replicated and independent experiments. To further assess and clarify the antimicrobial activity of MccJ25, the protective ability against E. coli adhesion, live/dead assay, and killing curve were performed, the detailed methods were provided in Supplementary Materials .

E. coli BRO 528 = assay: as above; format: cell-based; conditions: source broiler stool
Protocol: as §1

E. coli SWI 541 = assay: as above; format: cell-based; conditions: source pig stool
Protocol: as §1

E. coli SWI 441 = assay: as above; format: cell-based; conditions: source pig stool
Protocol: as §1

E. coli K88 (ETEC K88) = assay: Killing curves (bactericidal activity at different growth phases); format: cell-based
Protocol: Figure 1 Bactericidal activity assay of MccJ25 against E coli K88. Different concentrations of E coli K88 were cultured in LB containing different levels of MccJ25. E coli K88 cells (5 × 10^5 CFU/mL) were incubated and grown to different stages, including early-log (A), late-log (B) and stationary (C) phases. Additionally, bacteria, 5 × 10^8 CFU/mL, were cultured and grown to early-log (D), late-log (E) and stationary (F) phases. Data are means ± standard error of mean from 6 biological replicates.
A purified single colony of E. coli K88 was inoculated into 5 mL of LB. Then, culture was incubated at 37◦C with shaking at 200 rpm overnight. The next day, the culture was diluted 1:100 in fresh LB and incubated at 37◦C with shaking at 200 rpm again. To test antimicrobial activity, the bacteria were grown until they reached log phase. […] The cultures were serially diluted with sterilized saline water and plated on LB agar at different hours. The plates were incubated at 37◦C overnight to count colony. Colonies were counted to determine CFU/mL. The experiment was conducted with two replicates in three independent trials. A Live/Dead BacLight Bacterial Viability Kit 7 (Molecular Probes, Inc., Eugene) was used to test bacterial viability. […] E. coli K88 cultures were incubated at 37◦C for 2 h and then incubated in the dark at ambient temperature with SYTO 9 and propidium iodide for 15 min. Bacteria were observed using a fluorescence microscope (EVOS XL Cell Imaging System).

[2] = LB medium, 99.99% reduction, three independent experiments
[3] = broth dilution in MHB, 37°C, three independent experiments

Structure (SMILES): CC[C@H](C)[C@H](NC(=O)CNC(=O)[C@@H](NC(=O)[C@H](Cc1ccccc1)NC(=O)[C@H](Cc1ccc(O)cc1)NC(=O)[C@@H]1CCC(=O)NCC(=O)NCC(=O)N[C@@H](C)C(=O)NCC(=O)N[C@@H](Cc2c[nH]cn2)C(=O)N[C@@H](C(C)C)C(=O)N2CCC[C@H]2C(=O)N1)C(C)C)C(=O)NCC(=O)N[C@H](C(=O)N1CCC[C@H]1C(=O)N[C@H](C(=O)N[C@@H](CO)C(=O)N[C@@H](Cc1ccccc1)C(=O)N[C@@H](Cc1ccc(O)cc1)C(=O)NCC(=O)O)[C@@H](C)CC)[C@@H](C)O [MccJ25, microcin J25] (GGAGHVPEYFVGIGTPISFYG-OH; lactam N-8 (inferred); C-terminus assumed)
- LPS neutralization [1]: 92.59%
- MBC (E. coli SWI 531; [2]): 0.500 µg/mL (≈ 0.237 µM)
- MIC (E. coli SWI 531; [3]): 0.060 µg/mL (≈ 0.0285 µM)
- MIC/MBC (E. coli SWI 531; ratio): 0.120
- MBC (E. coli BRO 528; [2]): 2.000 µg/mL (≈ 0.949 µM)
- MIC (E. coli BRO 528; [3]): 0.500 µg/mL (≈ 0.237 µM)
- MIC/MBC (E. coli BRO 528; ratio): 0.250
- MBC (E. coli SWI 541; [2]): 2.000 µg/mL (≈ 0.949 µM)
- MIC (E. coli SWI 541; [3]): 0.500 µg/mL (≈ 0.237 µM)
- MIC/MBC (E. coli SWI 541; ratio): 0.250
- MBC (E. coli SWI 441; [2]): 0.500 µg/mL (≈ 0.237 µM)
- MIC (E. coli SWI 441; [3]): 0.060 µg/mL (≈ 0.0285 µM)
- MIC/MBC (E. coli SWI 441; ratio): 0.120
- time in which all inoculants were killed (E. coli K88 (ETEC K88); at the indicated MICs, stationary phase): ≤ 6 h
- time in which all inoculums were killed (E. coli K88 (ETEC K88); inoculum 5 × 10^5 CFU/mL, 2 × MIC, each growth period (early log, late log, stationary), LB, 37°C): ≤ 4 h
- reduction of bacterial count (E. coli K88 (ETEC K88); inoculum 5 × 10^5 CFU/mL, 4 × MIC, after 2 h incubation): 5 log
- reduction of bacterial count (E. coli K88 (ETEC K88); inoculum 5 × 10^5 CFU/mL, at the indicated MICs, at 2 h, all phases): approximately 4 log
- reduction of bacterial count (E. coli K88 (ETEC K88); inoculum 5 × 10^8 CFU/mL at log phase, 4 × MIC, 12 h): 8 log
- reduction of bacterial count (E. coli K88 (ETEC K88); inoculum 5 × 10^8 CFU/mL, 1 × MIC, within 7 h): 6 log
